Common to all, as to type: cell-based, human
For test [1], the system named is HCT116-C9-C1. Description: Gene expression analysis using GeneChip in E7070-resistant strain C9-C1. The following applies: resistant strain C9-C1, 8 μM, 12 hours. The protocol:
E7070, or ER-35748 or ER-68487 represented by the structural formula shown below was added to the media of an E7070-susceptible strain HCT116-C9 and an E7070-resistant strain HCT116-C9-C1 at a concentration of 8 μM and the cells were cultured. Then, cells were recovered after 0, 3, 6 and 12 hours. Further, the cells were also cultured for 12 hours without adding the drug and recovered. Total RNA was extracted from these cells and subjected to the subsequent analyses. […] The stained GeneChip was scanned by using HP Argon Ion Laser Confocal Scanner (Hewlett Packard) to measure its fluorescence intensity. The fluorescence was measured at 570 nm by using an excitation light at 488 nm. The quantitative data analyses were all conducted by using GeneChip Software (Affymetrix). To quantify RNA, an average of “differences [(Perfect match hybridization signal)−(Mismatch signal)]” was obtained for each probe family. […] Two kinds of E7070-resistant strains (C9-C1 and another resistant strain (C9-C4) obtained in the same method as C9-C1) were treated with 8 μM of E7070 for 12 hours in the same manner as described above, and variations of the gene expression were analyzed by using GeneChip for the genes listed in Tables 1 and 2.

Test [2] concerns C9-C4. Description: Gene expression analysis using GeneChip in E7070-resistant strain C9-C4. The following applies: resistant strain C9-C4, 8 μM, 12 hours. How it is done: The fragmented cRNA was hybridized with GeneChip Hu6800 (Affymetrix) in 100 mM MES, 1 M sodium salt, 20 mM EDTA and 0.01% Tween 20 at 45° C. for 16 hours. After the hybridization, the GeneChip was washed and stained according to the protocol EukGE-WS2 attached to Affymetrix Fluidics Station. For the staining, streptavidin-phycoerythrin and biotinylated goat anti-streptavidin antibody were used. The stained GeneChip was scanned by using HP Argon Ion Laser Confocal Scanner (Hewlett Packard) to measure its fluorescence intensity. The fluorescence was measured at 570 nm by using an excitation light at 488 nm. The quantitative data analyses were all conducted by using GeneChip Software (Affymetrix). To quantify RNA, an average of “differences [(Perfect match hybridization signal)−(Mismatch signal)]” was obtained for each probe family. […] Two kinds of E7070-resistant strains (C9-C1 and another resistant strain (C9-C4) obtained in the same method as C9-C1) were treated with 8 μM of E7070 for 12 hours in the same manner as described above, and variations of the gene expression were analyzed by using GeneChip for the genes listed in Tables 1 and 2.

Test [3] relates to HCT116-C9-C1. Description: Gene expression analysis by quantitative PCR. The following applies: resistant strain HCT116-C9-C1, 8 μM, 0-12 hours, FIG. 4. The protocol:
(§1) E7070, or ER-35748 or ER-68487 represented by the structural formula shown below was added to the media of an E7070-susceptible strain HCT116-C9 and an E7070-resistant strain HCT116-C9-C1 at a concentration of 8 μM and the cells were cultured. Then, cells were recovered after 0, 3, 6 and 12 hours. Further, the cells were also cultured for 12 hours without adding the drug and recovered. In order to confirm that variations in gene expression obtained in Example 2 reflected the susceptibility of a tumor cell to E7070, changes of gene expression in E7070-susceptible cells and E7070-resistant cells were examined by quantitative PCR using RNA shown in Example 1, SYBR Green and ABI Prism 7700 Sequence Detection System (Perkin-Elmer Applied Biosystems). The operation was performed in two steps of a reverse transcription reaction and PCR reaction. […] The mRNA level in each specimen was quantified by measuring fluorescence intensity. In comparison of two or more specimens, quantitative values were corrected based on the mRNA level of GAPDH in each specimen. The relationships between the drug treatment time and each mRNA level are shown in FIGS. 2 to 5, where the quantified value at 0 hour after the drug treatment was used as a control (100%).

Test [4] deals with HCT116-C9. Kind of test: Gene expression analysis by quantitative PCR. The following applies: susceptible strain HCT116-C9, 8 μM, 0-12 hours, FIG. 2. How it is done: as §1

Each structure is given as a SMILES string.

On to `NS(=O)(=O)c1ccc(S(=O)(=O)Nc2cccc3c(Cl)c[nH]c23)cc1` [E7070, N-(3-chloro-7-indolyl)-1,4-benzenedisulfonamide], for which the “variations of the gene expression for the genes listed in Tables 1 and 2” value in test [1] and in test [2] was “no gene that increased or decreased 1.8 times or more was observed” throughout. Also, the “mRNA level variation of S80343, U07919, U11791, M95809, U18291, U63743, M61764 (corrected by GAPDH)” value is “no expression variation was observed” in test [3] and “largest expression variation” in test [4].

(Values after patent US7445892B2, “Method of testing anticancer agent-sensitivity of tumor cells” (Eisai Co., Ltd., priority 2000, dated 2008).)
